Marks after values point to notes of the source that are not given here.
What was measured:
[1] = tested on: PBMCs from YF-17DD vaccinees; assay type: cell-based, human
[2] = tested on: 14 different HLA class II molecules; assay type: binding, human
[3] = tested on: CD4^+ depleted PBMCs from YF-17DD vaccinees; assay type: cell-based, human
[4] = tested on: CD8^+ T-cells isolated from HLA-A*0201 positive individuals; assay type: cell-based, human

Row | Compound | ELISPOT Max [1] [SFC/10^6 PBMC] | ELISPOT Min [1] [SFC/10^6 PBMC] | No. of responders [1] | Recognition frequency (%) (Table S1) [1] | Level of peptide promiscuity [2] | Total DR bound [2] | IFN-γ SFC Average ± STDEV [3] | IFN-γ SFC Median [3] | No. of responders (CD4-depleted PBMCs) [3] | T-cell activation by 9-mers covering NS4b77–91 [1] | yield of cellular proliferation of the CD8^+ T-cell population expanded by aAPCs [4]
1 | CC[C@H](C)[C@H](NC(=O)CNC(=O)[C@H](CCCCN)NC(=O)[C@H](CC(N)=O)NC(=O)[C@@H](NC(=O)[C@H](C)NC(=O)[C@H](C)NC(=O)[C@@H](NC(=O)[C@H](CC(C)C)NC(=O)[C@H](CC(=O)O)NC(=O)[C@H](CC(=O)O)NC(=O)[C@H](C)N)[C@@H](C)O)[C@@H](C)CC)C(=O)N[C@@H](CC(C)C)C(=O)N[C@H](C(=O)N[C@H](C(=O)O)[C@@H](C)O)C(C)C [Env337–351] | 30 | 12 | 3 | 17 | intermediate (key: low (affinity to 2 to 5 HLA class II molecules bound); intermediate (affinity to 6 to 9 HLA class II molecules bound); highly promiscuous (binding to ≥10 HLA molecules)) | 9 | – | – | – | – | –
2 | CC[C@H](C)[C@H](NC(=O)CNC(=O)[C@H](CCCCN)NC(=O)[C@@H](N)CC(N)=O)C(=O)N[C@@H](CC(C)C)C(=O)N[C@H](C(=O)N[C@H](C(=O)N[C@H](C(=O)N[C@@H](CC(N)=O)C(=O)N1CCC[C@H]1C(=O)N[C@H](C(=O)N[C@@H](C)C(=O)N[C@@H](CO)C(=O)N[C@H](C(=O)N[C@@H](CC(N)=O)C(=O)O)[C@@H](C)O)[C@@H](C)CC)C(C)C)[C@@H](C)O)C(C)C [Env345–359] | 271 | 10 | 9 | 33 | highly promiscuous (key: low (affinity to 2 to 5 HLA class II molecules bound); intermediate (affinity to 6 to 9 HLA class II molecules bound); highly promiscuous (binding to ≥10 HLA molecules)) | 13 | 315±160 SFC (CD4-depleted PBMCs/10^6) | 287 SFC (CD4-depleted PBMCs/10^6) | 3 | – | –
3 | CC[C@H](C)[C@H](NC(=O)[C@H](CC(C)C)NC(=O)[C@@H](NC(=O)[C@H](CCC(=O)O)NC(=O)[C@@H](N)CC(=O)O)C(C)C)C(=O)N[C@@H](CCC(=O)O)C(=O)N[C@H](C(=O)N[C@@H](CC(N)=O)C(=O)N1CCC[C@H]1C(=O)N1CCC[C@H]1C(=O)N[C@@H](Cc1ccccc1)C(=O)NCC(=O)N[C@@H](CC(=O)O)C(=O)N[C@@H](CO)C(=O)N[C@@H](Cc1ccc(O)cc1)C(=O)O)C(C)C [Env361–375] | 203 | 14 | 4 | 15 | – | 10 | 16±0 SFC (CD4-depleted PBMCs/10^6) | 16 SFC (CD4-depleted PBMCs/10^6) | 2 | – | –
4 | CSCC[C@H](NC(=O)[C@@H](NC(=O)[C@@H](N)C(C)C)C(C)C)C(=O)N[C@H](C(=O)N[C@@H](CO)C(=O)N[C@@H](CC(C)C)C(=O)N[C@@H](C)C(=O)N[C@@H](CC(C)C)C(=O)N[C@H](C(=O)NCC(=O)N[C@@H](C)C(=O)N[C@@H](C)C(=O)N[C@@H](CC(C)C)C(=O)N[C@@H](Cc1c[nH]cn1)C(=O)N1CCC[C@H]1C(=O)O)C(C)C)[C@@H](C)O [NS2b97–111] | 26 | 10 | 6 | 10 | intermediate (key: low (affinity to 2 to 5 HLA class II molecules bound); intermediate (affinity to 6 to 9 HLA class II molecules bound); highly promiscuous (binding to ≥10 HLA molecules)) | 7 | – | – | – | – | –
5 | CC[C@H](C)[C@H](NC(=O)[C@@H](NC(=O)[C@H](CCC(=O)O)NC(=O)CNC(=O)[C@H](CC(N)=O)NC(=O)[C@H](CCCNC(=N)N)NC(=O)[C@H](CC(N)=O)NC(=O)[C@@H](NC(=O)[C@@H](NC(=O)[C@@H]1CCCN1C(=O)[C@H](CO)NC(=O)CNC(=O)[C@H](CO)NC(=O)[C@@H](NC(=O)CN)[C@@H](C)O)[C@@H](C)CC)C(C)C)C(C)C)C(=O)O [NS3_137–151] | 137 | 18 | 5 | 11 | – | 1 | – | – | 0 | – | –
6 | CSCC[C@H](NC(=O)[C@H](C)NC(=O)[C@H](CCSC)NC(=O)[C@@H](N)CCCNC(=N)N)C(=O)N[C@H](C(=O)N[C@@H](CC(=O)O)C(=O)N[C@H](C(=O)N[C@H](C(=O)N1CCC[C@H]1C(=O)N[C@@H](Cc1ccccc1)C(=O)NCC(=O)N[C@@H](CCC(N)=O)C(=O)N[C@@H](CCC(N)=O)C(=O)N[C@@H](CCCNC(=N)N)C(=O)N[C@H](C(=O)O)C(C)C)[C@@H](C)O)[C@@H](C)O)[C@@H](C)O [NS5_341–355] | 267 | 27 | 6 | 12 | low (key: low (affinity to 2 to 5 HLA class II molecules bound); intermediate (affinity to 6 to 9 HLA class II molecules bound); highly promiscuous (binding to ≥10 HLA molecules)) | 4 | – | – | 0 | – | –
7 | CC(C)[C@H](NC(=O)[C@H](CCCNC(=N)N)NC(=O)[C@H](CCC(N)=O)NC(=O)[C@H](CCC(N)=O)NC(=O)CNC(=O)[C@H](Cc1ccccc1)NC(=O)[C@@H]1CCCN1C(=O)[C@@H](NC(=O)[C@@H](NC(=O)[C@H](CC(=O)O)NC(=O)[C@@H](N)[C@@H](C)O)[C@@H](C)O)[C@@H](C)O)C(=O)N[C@@H](Cc1ccccc1)C(=O)N[C@@H](CCCCN)C(=O)N[C@@H](CCC(=O)O)C(=O)N[C@@H](CCCCN)C(=O)O [NS5_345–359] | 914 | 55 | 8 | 17 | low (key: low (affinity to 2 to 5 HLA class II molecules bound); intermediate (affinity to 6 to 9 HLA class II molecules bound); highly promiscuous (binding to ≥10 HLA molecules)) | 2 | 66±71 SFC (CD4-depleted PBMCs/10^6) | 32 SFC (CD4-depleted PBMCs/10^6) | 3 | – | –
8 | CC[C@H](C)[C@H](NC(=O)[C@H](C)NC(=O)[C@H](CCCNC(=N)N)NC(=O)[C@H](CO)NC(=O)CNC(=O)[C@H](CCCCN)NC(=O)[C@H](C)NC(=O)[C@H](CCCCN)NC(=O)CNC(=O)[C@H](Cc1ccccc1)NC(=O)[C@@H](N)CCC(=O)O)C(=O)N[C@@H](Cc1c[nH]c2ccccc12)C(=O)N[C@@H](Cc1ccc(O)cc1)C(=O)N[C@@H](CCSC)C(=O)N[C@@H](Cc1c[nH]c2ccccc12)C(=O)O [NS5_465–479] | 1593 | 10 | 6 | 12 | intermediate (key: low (affinity to 2 to 5 HLA class II molecules bound); intermediate (affinity to 6 to 9 HLA class II molecules bound); highly promiscuous (binding to ≥10 HLA molecules)) | 7 | 168±0 SFC (CD4-depleted PBMCs/10^6) | 168 SFC (CD4-depleted PBMCs/10^6) | 2 | – | –
9 | CC[C@H](C)[C@H](NC(=O)[C@H](C)NC(=O)[C@H](CCCNC(=N)N)NC(=O)[C@H](CO)NC(=O)CNC(=O)[C@H](CCCCN)NC(=O)[C@H](C)N)C(=O)N[C@@H](Cc1c[nH]c2ccccc12)C(=O)N[C@@H](Cc1ccc(O)cc1)C(=O)N[C@@H](CCSC)C(=O)N[C@@H](Cc1c[nH]c2ccccc12)C(=O)N[C@@H](CC(C)C)C(=O)NCC(=O)N[C@@H](C)C(=O)N[C@@H](CCCNC(=N)N)C(=O)O [NS5_469–483] | 1828 | 13 | 8 | 17 | highly promiscuous (key: low (affinity to 2 to 5 HLA class II molecules bound); intermediate (affinity to 6 to 9 HLA class II molecules bound); highly promiscuous (binding to ≥10 HLA molecules)) | 10 | – | – | – | – | –
10 | CC(C)C[C@H](NC(=O)[C@H](C)NC(=O)[C@H](CCC(=O)O)NC(=O)[C@H](Cc1ccccc1)NC(=O)[C@H](CCC(=O)O)NC(=O)[C@H](CC(C)C)NC(=O)[C@H](Cc1ccc(O)cc1)NC(=O)[C@H](CCCNC(=N)N)NC(=O)[C@H](C)NC(=O)CN)C(=O)NCC(=O)N[C@@H](Cc1ccccc1)C(=O)N[C@@H](CC(C)C)C(=O)N[C@@H](CC(N)=O)C(=O)N[C@@H](CCC(=O)O)C(=O)O [NS5_481–495] | 1022 | 13 | 11 | 23 | highly promiscuous (key: low (affinity to 2 to 5 HLA class II molecules bound); intermediate (affinity to 6 to 9 HLA class II molecules bound); highly promiscuous (binding to ≥10 HLA molecules)) | 10 | 95±0 SFC (CD4-depleted PBMCs/10^6) | 95 SFC (CD4-depleted PBMCs/10^6) | 2 | – | –
11 | LWNGPMAVS [NS4b77–85] | – | – | – | – | – | – | – | – | – | induced the most T-cell activation | 2×10^6

— paper PMC3561163 (PLoS Neglected Tropical Diseases, 2013)
